Tests used:
[1] = tested on: pS2152FLNA, FLNA-associated PTEN and PP2A in primary lung fibroblast cells; assay: pS2152FLNA and FLNA-associated PTEN and PP2A in anti-FLNA immunoprecipitate (Western blotting); format: cell-based, human; conditions: 0.1-5 nM; 4 days
Description: (§1) The effect of contact with Compound C0105 on the levels of pS^2152FLNA and FLNA-associated phosphatases, PTEN and PP2A subclasses was determined in primary lung fibroblast cells. Cells were treated with vehicle and 0.1-5 nM Compound C0105 for 4 days. Cells were washed, solubilized and the resultant cell lysate was immunoprecipitated with anti-FLNA. The levels of pS^2152FLNA and FLNA-associated phosphatases, PTEN and PP2A subclasses in the anti-FLNA immunoprecipitate were determined by Western blotting. The density of protein bands was measured by densitometric scanning. […] N=4. **p<0.05, *p<0.01 compared to vehicle (open bars). […]
(§2) The cell lysates were diluted 5-fold with immunoprecipitation buffer and immunoprecipitated with anti-FLNA, -Akt, -mTOR and -ERK2 as described previously [Talbot et al., J Clin Inv 122(4):1-23 (2012); Wang et al., J Neurosci 32(29):9773-9784 (2012)]. The levels of FLNA linkages, activated phosphorylated Akt (pS^473 and pT^308), phosphorylated mTOR (pS^2448) and phosphorylated ERK2 (pY/pT) were determined in anti-FLNA, -Akt, -mTOR and -ERK2 immunoprecipitates by Western blotting with appropriate antibodies directed against PTEN, PP2A, K-RAS, ras-GAP (FLNA linkages), pS^473Akt, pT^308Akt, pS^2448mTOR and pY/pT ERK2 (activation of Akt, mTOR and ERK2).

more than 65 receptors = assay: Standard binding assay on more than 65 receptors; conditions: 10 μM concentration
[2] = tested on: pS2448mTOR, pS473Akt, pY/pT-ERK2 in HPEC; assay: Activated (phosphorylated) mTOR, Akt and ERK2 levels (immunoprecipitation, Western blotting); format: cell-based, human; conditions: 0.1-5 nM; 4 days
Description: (§3) Cells were treated with vehicle and 0.1-5 nM C0105 for 4 days. Cells were washed, solubilized and the resultant cell lysate was immunoprecipitated with anti-mTOR, -Akt or -ERK2. The levels of pS^2448mTOR, pS^473Akt, pY/pTERK2 in the respective anti-mTOR, -Akt, and -ERK2 immunoprecipitates were determined by Western blotting (not shown). The density of protein bands was measured by densitometric scanning. […] FIGS. 13C and 13G and FIGS. 13D and 13H show similarly obtained data for immunoprecipitates from HMEC and HPEC cells, respectively. Cell treatments and data handling were as discussed in FIG. 12.
(§4) To study the effect of Compound C0105 on pS^2152FLNA levels, FLNA linkages to key regulators including protein phosphatases as well as activated Akt (pS^473-, pT^308-Akt), mTOR ([…]) and ERK (pY/pT-ERK) levels, the cancer and normal cells were cultured to approximately 90% confluency and treated with vehicle or varying concentrations of Compound C0105. The cells were washed with warm phosphate-buffered saline (PBS), pH 7.2, dissociated, homogenized by sonication and solubilized using 0.5% NP-40 (nonoxynol 40), 0.2% sodium cholate and 0.5% digitonin for 1 hour at 4° C.
as §2

[3] = tested on: pS2448mTOR, pS473Akt, pY/pT-ERK2 in MiaPaCa2 cells; assay: as above; format: cell-based, human; conditions: 0.1-5 nM; 4 days
Description: as §3, §4, §2

[4] = tested on: pS2448mTOR, pS473Akt, pY/pT-ERK2 in HTB-22 cells; assay: as above; format: cell-based, human; conditions: 0.1-5 nM; 4 days
Description: as §3, §4, §2

[5] = tested on: pS2448mTOR, pS473Akt, pY/pT-ERK2 in HMEC; assay: as above; format: cell-based, human; conditions: 0.1-5 nM; 4 days
Description: as §3, §4, §2

[6] = tested on: pS2152FLNA, FLNA-associated PTEN and PP2A in melanoma cells; assay: pS2152FLNA and FLNA-associated PTEN and PP2A in anti-FLNA immunoprecipitate (Western blotting); format: cell-based, human; conditions: 0.1-5 nM; 4 days
Description: as §1, with “of” for “of contact with”, “melanoma” for “primary lung fibroblast”, “quantified” for “measured”
as §2

[7] = tested on: FLNA-bound K-ras and ras-GAP in MiaPaCa2 cells; assay: FLNA-bound K-ras and ras-GAP (immunoprecipitation, Western blotting); format: cell-based, human; conditions: 0.1, 0.5, 1 and 5 nM
Description: (§5) Thus, melanoma, two different pancreatic cancerous cell lines (MiaPaCa2 and BxPc3) and a glioblastoma cell line (U87) were treated with zero (vehicle), 0.1, 0.5, 1 and 5 nM Compound C0105 as previously discussed, and FLNA-bound K-ras and ras-GAP were immunoprecipitated, separated by Western blotting and the blot densities determined as discussed previously.
as §4, §2

[8] = tested on: FLNA-bound K-ras and ras-GAP in BxPc3 cells; assay: as above; format: cell-based, human; conditions: 0.1, 0.5, 1 and 5 nM
Description: as §5, §4, §2

[9] = tested on: FLNA-bound K-ras and ras-GAP in glioblastoma cell line (U87); assay: as above; format: cell-based, human; conditions: 0.1, 0.5, 1 and 5 nM
Description: as §5, §4, §2

[10] = tested on: FLNA-bound K-ras and ras-GAP in melanoma cells; assay: as above; format: cell-based, human; conditions: 0.1, 0.5, 1 and 5 nM
Description: as §5, §4, §2

CN1CCC2(CC1)NCC(=O)N2Cc1ccccc1 [Compound C0105]
FLNA-associated PTEN and PP2A levels [1]: does not affect
pS2152FLNA level [1]: does not affect
Binding to any of more than 65 assayed receptors (more than 65 receptors): no significant binding
mTOR, Akt and ERK activation (phosphorylated mTOR, Akt and ERK) [2]: has little effect on mTOR, Akt and ERK activation
mTOR, Akt and ERK activation (phosphorylated mTOR, Akt and ERK) [3]: has little effect on mTOR, Akt and ERK activation
mTOR, Akt and ERK activation (phosphorylated mTOR, Akt and ERK) [4]: has little effect on mTOR, Akt and ERK activation
mTOR, Akt and ERK activation (phosphorylated mTOR, Akt and ERK) [5]: has little effect on mTOR, Akt and ERK activation
FLNA-associated PTEN and PP2A levels [6]: increases FLNA-associated PTEN and PP2A levels
pS2152FLNA level [6]: reduces pS^2152FLNA
FLNA-bound K-ras [7]: reduces K-ras
FLNA-bound Ras-GAP [7]: increases Ras-GAP
FLNA-bound K-ras [8]: reduces K-ras
FLNA-bound Ras-GAP [8]: increases Ras-GAP
FLNA-bound K-ras [9]: reduces K-ras
FLNA-bound Ras-GAP [9]: increases Ras-GAP
FLNA-bound K-ras [10]: reduces K-ras
FLNA-bound Ras-GAP [10]: increases Ras-GAP

Reference: US10363239B2, “Method for inhibiting growth of cancer cells” (Pain Therapeutics, Inc., priority 2013, dated 2019)
